How the values were obtained:
[1] = Dissociation constant, pKa of the compound by capillary electrophoresis method; assay type: physicochemical
[2] = Volume of distribution at steady state in Sprague-Dawley rat at 0.5 mg/kg, iv; assay type: ADME, organism-based; settings: in vivo, read-out: Vdss
[3] = Oral bioavailability in Sprague-Dawley rat at 10 mg/kg; assay type: ADME, organism-based; settings: in vivo
[4] = Kinetic solubility of the compound in simulated intestinal fluid; assay type: physicochemical; settings: simulated gi fluid

Structure (SMILES) | pKa [1] | further results
O=C(O)CNC(=O)c1cc(F)c(COc2ccc(Cl)c(Cl)c2)cc1F | 3.4 | –
CC(C)COc1ncc(-c2cc(F)c(-c3nnc(S(=O)(=O)C4CCC4)[nH]3)cc2F)cc1Cl | – | Vd [2]: 0.7 L/kg
CS(=O)(=O)c1nnc(-c2cc(F)c(COc3ccc(Cl)c(Cl)c3)cc2F)[nH]1 | 4.8 | –
CC(=O)NS(=O)(=O)c1cc(F)c(COc2ccc(Cl)c(Cl)c2)cc1F | 3.7 | –
O=C(O)c1cc(F)c(COc2ccc(Cl)c(Cl)c2)cc1F | 3.1 | –
CS(=O)(=O)NC(=O)c1cc(F)c(COc2ccc(Cl)c(Cl)c2)cc1F | 3.1 | –
O=c1[nH]c(-c2cc(F)c(COc3ccc(Cl)c(Cl)c3)cc2F)no1 | 4.3 | –
O=S(=O)(CC1CC1)c1nnc(-c2cc(F)c(-c3cnc(Oc4ccccc4C(F)(F)F)c(Cl)c3)cc2F)[nH]1 | – | Vd [2]: 0.37 L/kg; bioavailability [3]: 140%; Kinetic solubility [4]: 101 µM

Reference: ChEMBL document CHEMBL4118149, “1,2,4-Triazolsulfone: A novel isosteric replacement of acylsulfonamides in the context of NaV1.7 inhibition” (Bioorg Med Chem Lett, 2018)
